Measured values as given in patent publication US20240270737A1, “SMALL MOLECULAR INHIBITORS OF STING SIGNALING COMPOSITIONS AND METHODS OF USE” (STINGINN INC., priority 2021, published 2024).

Experiments:
[1] = system: IRF3 translocation induced by dsDNA (ISD); assay: IRF3 translocation inhibition, confocal/immunofluorescence after ISD transfection; format: cell-based; conditions: Homo sapiens, % means blockage of IRF3 translocation induced by dsDNA (ISD)
Description: Inhibition of IFNβ expression was measured by Luciferase induction at 24 hours after transfection of ISD. […]. […] FIG. 3H qPCR of IFNβ 1 performed in MEFs treated same as in FIG. 3A. FIG. 3I qPCR of CCL5 performed in MEFs treated same as in FIG. 3A.
Immunofluorescence Microscopy: Cells were cultured and treated in their appropriate media on Lab-Tek II chamber slides. Cell were fixed with 4% paraformaldehyde for 15 minutes in at 37° C. and permeabilized with 0.05% Triton X-100 for 5 minutes at room temperature. Immunostaining was performed with rabbit-anti-STING polyclonal, rabbit-anti-IRF3 (Santa Cruz Biotechnology) or rabbit-anti-p65 (Cell Signaling) followed by fluorescence conjugated secondary antibodies (FITC-goat-anti-rabbit) (Invitrogen).

[2] = system: pIRF3, pSTING; assay: Western blot of pIRF3, pSTING, pTBK1 after ISD transfection in hTERT cells; format: cell-based, human
Description: FIG. 1C are photographs showing Western blot analysis of STING, phospho-TBK1 (pTBK1) and phospho-IRF3 (pIRF3) performed at 6 hours after ISD transfection with/without W1 treatment same as FIG. 1A, Mock is shown (210), ISD treatment only (220) was used as a control, according to an embodiment of the invention;
Immunoblot analysis: Equal amounts of proteins were resolved on sodium dodecyl sulfate (SDS)-Polyacrylamide gels and then transferred to polyvinylidene fluoride (PVDF) membranes (Millipore). After blocking with 5% Blocking Reagent, membranes were incubated with various primary antibodies (and appropriate secondary antibodies). The image was resolved using an enhanced chemiluminescence system ECL (Thermo Scientific) and detected by autoradiography (Kodak). Antibodies: rabbit polyclonal antibody against STING was developed in our laboratory as described previously in Ishikawa et al, 2008; other antibodies were obtained from following sources: β-actin (Sigma Aldrich), p-IRF3 (Cell Signaling), IRF3 (Santa Cruz Biotechnology), p-p65 (Cell Signaling), p65 (Cell Signaling), p-TBK1 (Cell Signaling), TBK1 (Abcam), cGAS (Cell Signaling).

[3] = system: IFNβ expression (type I IFNβ promoter driving luciferase); assay: IFNβ promoter luciferase assay in hTERT-pIFNβ-Glu cells transfected with ISD; format: cell-based, human
Description: Inhibition of IFNβ expression was measured by Luciferase induction at 24 hours after transfection of ISD, DMSO is shown (230), ISD treatment only (220) was used as a control, according to an embodiment of the invention;
Inhibition of IFNβ expression was measured by Luciferase induction at 24 hours after transfection of ISD, Mock is shown (210), ISD treatment only (220) was used as a control, according to an embodiment of the invention;
Identification of small molecule inhibitors of STING. In the presence of cytosolic DNA species, STING becomes activated to drive the transcription of cytokines such as type I IFN. Compounds binding to STING via TSA were subsequently examined for their ability to prevent cytosolic DNA species from activating the type I interferon (IFN) promoter, using a live cell assay. This assay comprised immortalized human fibroblasts (hTERT) that were stably transfected with the type I IFN promoter driving luciferase as well as the CMV promoter driving SEAP (hTERT-pIFNβ-Glu). The live cell assay has previously been disclosed in PCT/US2019/025380 entitled IFN-Beta Reporter System for Immortalized Primary Cells inventor Glen N. Barber, which was filed Apr. 2, 2018 and published as WO2019195285, and which is herein incorporated by reference in its entirety and for all purposes. The ability of the small molecules to prevent activation of the type I IFN promoter and the transcription of luciferase, but not SEAP in response to cytosolic DNA species was assessed. The activation of STING, typically by CDNs, in turn activates the transcription factors NF-κB and IRF3, both of which are required to induce the transcriptional stimulation of the Type I IFN promoter, but not the CMV promoter as IRF3 and NF-kB transcription factor binding sites are not contained in the CMV promoter. The assay identified the small molecule Compound W1 in the first screen (HTS), where the level of luciferase was not able to activate the type I IFN promoter or induce the expression of luciferase (see Table I and Table II).
Inhibition of IFNβ expression was measured by Luciferase induction at 24 hours after transfection of ISD. ISD only treatment was used as control.
Inhibition of IFNβ expression was measured by Luciferase induction at 24 hours after transfection of ISD, Mock is shown (210), ISD treatment only (220) was used as a control.
Luciferase assay: hTERT-BJ1 Telomerase Fibroblasts stably expressing the luciferase gene under the control of the interferon-beta promoter and SEAP gene under control of the CMV promoter) (hTERT-pIFNβ-Glu) were generated by the Barber laboratory. Luciferase assay was performed using Secrete-Pair Dual Luminescence Assay Kit from GeneCopoeia following the manufacturer's protocol.

[4] = system: IFNβ expression and production; assay: IFNβ expression and production in normal hTERT cells (qPCR, ELISA); format: cell-based, human; conditions: ISD transfection
Description: The ability of compound W1 administered onto normal hTERT cells to prevent cytosolic DNA from activating STING was assessed (FIGS. 1B-H). […] In addition, the level of STING phosphorylation (STING is phosphorylated following activation) and the subsequent phosphorylation of TBK1, the kinase of IRF3 was assessed. Phosphorylation of TBK1 and IRF3 are required for activation of the type I IFN promoter.
Interferon R Elisa analysis: Interferon R Elisa was performed using either the IFNβ human ELISA Kit from Invitrogen or the Human IFNβ ELISA Kit from PBL Interferon Source following the manufacturer's protocol.
Quantitative Real time PCR (qPCR) Total RNA were reverse-transcribed using M-MLV Reverse Transcriptase (Promega). Real-time PCR was performed using Taqman Gene Expression Assay (Applied Biosystems) for innate immune genes and inflammatory cytokines.

For `Cc1cc([N+](=O)[O-])ccc1S(=O)(=O)Nc1nc2cc(C(F)(F)F)ccc2[nH]1` [Compound W1, 2-methyl-4-nitro-N-[5-(trifluoromethyl)-1H-1,3-benzodiazol-2-yl]benzene-1-sulfonamide], the inhibition at 25 µM [1] was 40 to 50%, the inhibition at 10 µM ([2]; Homo sapiens) was less than 10% and the “STING phosphorylation and TBK1 and IRF3 phosphorylation” value ([2]; hTERT cells, 6 hours after ISD transfection) was “robustly prevented”. The “activation of the type I IFN promoter in response to cytosolic DNA (luciferase)” value ([3]; 50 μM, 24 hours, ISD 3 μg/ml, hTERT-pIFNβ-Glu cells) was “inhibited activation of the type I IFN promoter”, the inhibition at 5 µM ([3]; Homo sapiens) was 4% and the “IFNβ expression and production” value [4] was “dramatically decreased”.
